# Laboratory results published in PMC9544171, “Glucose‐dependent insulinotropic polypeptide receptor antagonist treatment causes a reduction in weight gain in ovariectomised high fat diet‐fed mice” (British Journal of Pharmacology, 2022).
# Where a SMILES comes first, the peptide text is derived from it. The star is where a group is joined. C16 diacid = O=C(O)CCCCCCCCCCCCCCC(=O)*
# Assays:
# mouse GIP receptor = target: T1, mouse GIP receptor (Mus musculus, UniProt Q0P543); assay: cAMP accumulation, antagonism of mouse GIP(1‐42) in transfected COS‐7 cells; assay type: cell-based
# T1 construct: host or cells: COS-7
# T1 sequence (Q0P543 19-460): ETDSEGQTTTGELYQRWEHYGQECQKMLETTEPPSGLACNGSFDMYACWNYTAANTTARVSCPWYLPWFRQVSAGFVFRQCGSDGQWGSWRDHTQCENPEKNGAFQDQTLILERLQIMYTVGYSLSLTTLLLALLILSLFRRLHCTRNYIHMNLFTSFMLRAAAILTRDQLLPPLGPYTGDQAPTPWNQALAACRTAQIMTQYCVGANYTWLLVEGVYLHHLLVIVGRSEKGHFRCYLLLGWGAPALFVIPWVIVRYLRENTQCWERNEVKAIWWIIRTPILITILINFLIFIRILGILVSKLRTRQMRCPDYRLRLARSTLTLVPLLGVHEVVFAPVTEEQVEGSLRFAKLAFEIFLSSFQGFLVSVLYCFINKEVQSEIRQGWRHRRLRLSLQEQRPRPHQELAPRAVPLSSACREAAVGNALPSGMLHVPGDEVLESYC
# Description: COS‐7 cells were cultured at 10% CO2 and 37°C in Dulbecco's Modified Eagle Medium 1885 supplemented with 10% foetal bovine serum, 2‐mM glutamine, 180‐units ml^−1 penicillin and […] streptomycin. Transient transfection of the cells with either human or mouse GIP receptor was performed using the calcium phosphate precipitation method as previously described (van der Velden et al., [2021]). A second set of cells was transiently transfected with either mouse GLP‐1 or GLP‐2 receptor. Following the day after transfection, the cells were seeded in white 96‐well plates with a density of 35.000 cells per well. The next day the assay was initiated by washing the cells with HEPES buffered saline (HBS) followed by an incubation step with HBS and 1‐mM 3‐isobutyl‐1‐methylxanthine for 30 min at 37°C. For agonist studies, the ligands were then added and incubated for an additional 30 min at 37°C. To test for antagonistic properties, the cells were first preincubated for 10 min with the antagonist with subsequent addition of the agonist and incubated for an additional 20 min. The HitHunter® cAMP assay (Eurofins DiscoverX, Fremont, USA) was carried out according to the manufacturer's protocol. Luminescence was measured by PerkinElmer™ Envision 2014 Multilabel Reader.
# To facilitate comparisons of assay outputs (cAMP assays), the results (of duplicate measurements) were normalized, with the response to 10 pM of GIP(1‐42) set as 100%. All ligand concentrations are reported as log‐transformed. The IC50 log values can be found in Figure 1. In Figure 3c, we have subtracted glucose levels from baseline to show the net differences in glucose levels in our different treatment groups. […]
# (§1) Results are presented as mean ± SE. Data were analysed with one‐way and two‐way analysis of variance (ANOVA) with Tukey's or Sidak multiple comparisons test and Student's unpaired t tests where appropriate. […] For the in vitro data IC50 values were determined by nonlinear regression using GraphPad Prism 9 (San Diego, California, USA). […]
# [1] = Pharmacokinetic analysis after s.c. administration, plasma radioimmunoassay; assay type: in vivo; settings: sc, female C57Bl/6 mice, single s.c. 300 nmol·kg−1 (6 nmol per mouse), in‐house radioimmunoassay
# Description: To assess mGIPAnt‐1 half‐life following subcutaneous (s.c.) administration, mice (n = 6) received a single s.c. administration of 300‐nmol·kg^−1 mGIPAnt‐1. Retro‐orbital blood samples (50 μl) were taken using EDTA coated glass capillaries at (1) t = 0, 0.5, 1, 1.5, 2 and 2.5 h, (2) t = 2.5, 3, 4, 6, 8 and 22 h, or (3) t = 22, 24, 26, 28, 30 and 32 h and immediately added to Eppendorf tubes (Eppendorf, Hamburg, Germany) and centrifuged at 3500g, 20 min, 4°C. Plasma was transferred into Eppendorf tubes on dry ice and stored at −20°C for analysis.
# mGIPAnt‐1 levels were measured by an in‐house radioimmunoassay using a polyclonal antibody recognizing a mid‐regional part of GIP (code no. 95234) (Gasbjerg et al., [2017]). mGIPAnt‐1 was used as standard and the assay buffer was a 80‐mM phosphate buffer pH 7.5, containing (in final concentrations) 0.1% HSA, 10‐mM EDTA, 500‐KIU ml^−1 aprotinin and 0.01‐mM valine pyrrolidide. Samples were carefully diluted to ensure that samples would fall within the measurable range of the assay. […]
# as §1
# [2] = test system: Female ovariectomised C57Bl6/J mice; assay: Oral glucose tolerance test after 7 weeks of treatment; assay type: in vivo, mouse
# Description: After 7 weeks HFD and mGIPAnt‐1 treatment, an oral glucose tolerance test was performed. Animals were fasted from 08:00 AM to 11:00 AM and received 2‐g·kg^−1 glucose through oral gavage. Blood glucose was measured in the tail vein samples using a hand‐held glucometer (Accu‐Chek Mobile, Roche) at t = 0, 15, 30, 45, 60, 120 and 180 min. Retro‐orbital blood samples (75 μl) were taken using EDTA coated glass capillaries at t = 0, 15, 30 and 60 min and centrifuged at 3500g, 20 min, 4°C. Plasma was transferred into Eppendorf tubes on dry ice and stored at −20°C for later analysis of insulin measurements.
# Insulin levels in intraperitoneal glucose tolerance test and oral glucose tolerance test plasma samples were measured using a mouse insulin ELISA (catalogue no. 10‐1247‐10; Mercodia AB, Uppsala, Sweden). Adiponectin levels in terminal plasma samples were measured using a mouse adiponectin ELISA kit (catalogue no. 80569, Crystal Chem, Elk Grove Village, IL, USA). Adiponectin samples were carefully diluted in kit‐specific assay buffer. The manufacturer's instructions were followed closely.
structure (smiles),measurement,setting,value
CC[C@H](C)[C@H](NC(=O)[C@H](CO)NC(=O)[C@H](Cc1ccc(O)cc1)NC(=O)[C@H](CC(=O)O)NC(=O)[C@H](CO)NC(=O)[C@@H](NC(=O)[C@H](Cc1ccccc1)NC(=O)[C@@H](NC(=O)CNC(=O)[C@@H](N)CCC(=O)O)[C@@H](C)O)[C@@H](C)CC)C(=O)N[C@@H](C)C(=O)N[C@@H](CCSC)C(=O)N[C@@H](CC(=O)O)C(=O)N[C@@H](CCCCN)C(=O)N[C@H](C(=O)N[C@@H](CCCCNC(=O)CCCCCCCCCCCCCCC(=O)O)C(=O)N[C@@H](CCC(N)=O)C(=O)N[C@@H](CCC(N)=O)C(=O)N[C@@H](CC(=O)O)C(=O)N[C@@H](Cc1ccccc1)C(=O)N[C@H](C(=O)N[C@@H](CC(N)=O)C(=O)N[C@@H](Cc1c[nH]c2ccccc12)C(=O)N[C@@H](CC(C)C)C(=O)N[C@@H](CC(C)C)C(=O)N[C@@H](C)C(=O)N[C@@H](CCC(N)=O)C(=O)N[C@@H](CCCCN)C(=O)NCC(=O)N[C@@H](CCCCN)C(=O)N[C@@H](CCCCN)C(=O)N[C@@H](CC(N)=O)C(=O)N[C@@H](CC(=O)O)C(=O)N[C@@H](Cc1c[nH]c2ccccc12)C(=O)N[C@@H](CCCCN)C(=O)N[C@@H](Cc1c[nH]cn1)C(=O)N[C@@H](CC(N)=O)C(=O)O)C(C)C)[C@@H](C)CC [mGIPAnt‐1] (H-EGTFISDYSIAMDKIK(C16 diacid)QQDFVNWLLAQKGKKNDWKHN-OH),IC50,"mouse GIP receptor; COS‐7 transiently transfected with mouse GIPR, 10 min preincubation with antagonist, then mouse GIP(1‐42) at 50%–80% of Emax for 20 min, HitHunter cAMP, Hill slope −1.0, n = 5 independent experiments, read-out: IC50, inhibition of mGIP‐induced cAMP accumulation, mouse GIPR",269 nM
same,potency relative to mGIP(3‐30)NH2 on the mouse GIP receptor,mouse GIP receptor; ratio of IC50 813 nM / 269 nM,3 fold
same,half-life,"[1]; calculated between t = 1.5 h and 32 h, n = 6",~7.2 h
same,Tmax,"[1]; n = 6, read-out: time of peak plasma concentration",1.5 h
same,"glucose curve and iAUC, OGTT","[2]; 7 weeks of 300 nmol·kg−1 s.c. daily, 2 g·kg−1 oral glucose",did not affect
same,"insulin curve and iAUC, OGTT","[2]; 7 weeks of 300 nmol·kg−1 s.c. daily, 2 g·kg−1 oral glucose, ELISA",did not affect
same,fasting insulin levels,[2]; 7 weeks of treatment,not affected
same,"fasting glucose levels, HFD","[2]; 7 weeks of treatment, versus Vehicle/HFD",significantly decreased
